Laboratory results from PMC12382740, “In Vitro and In Vivo Characterization of Novel Cathelicidin-Based Peptides with Antimicrobial Activity Against Pseudomonas aeruginosa” (Antibiotics, 2025).
Read-outs that look alike come from different tables or passages of the source. Square brackets hold non-standard residues; d marks the D form. Peptide text beside a SMILES is read from it.

What was measured:
Type in all cases: cell-based, Pseudomonas aeruginosa
[1] = system: P. aeruginosa Strain 121007
Experimental: (§1) The antimicrobial activity of the peptides was tested against a collection of P. aeruginosa, selected by their resistance or susceptibility to colistin and/or classified as MDR strains. The origin of the strains was either clinical, relevant to the current clinical situation, or commercial strains belonging to the American Type Culture Collection (ATCC, Manassas, VA, USA), which complemented the collection for comparison and control. For the initial activity screening of the 17 peptides, we tested them against P. aeruginosa ATCC strains 1211007 and 1211101. Both strains are multidrug-resistant; however, the key difference is that strain 1211007 is susceptible to colistin, whereas strain 1211101 is resistant to colistin.
(§2) Minimum Inhibitory Concentration (MIC) of the antimicrobial agents against bacterial strains was obtained through broth microdilution assays following a protocol based on the Clinical & Laboratory Standards Institute’s guidelines. Modifications regarding microplate material and broth were included when testing the peptides’ activity and are detailed below. Colistin MICs were obtained following recommendations of the joint CLSI-EUCAST Polymyxin Breakpoints Working Group using Cation Adjusted Mueller-Hinton Broth (90922, 500 g Sigma-Aldrich®, St. Louis, MO, USA), and strains Escherichia coli 13846 (mcr-1 positive) and P. aeruginosa ATCC 27853 were used as quality controls in all assays. Bacteria were cultured in Columbia Agar plates (Columbia Agar with 5% Sheep Blood 90 mm Stacker plates, Becton Dickinson, Franklin Lakes, NJ, USA) and incubated overnight at 37 °C. Polypropylene round-bottomed 96-well plates (-96-well Polypropylene Storage Microplates, 267334, Thermo Fischer Scientific, Waltham, MA, USA) were used to prevent peptide binding to plate walls. AST broth (BD Phoenix™ AST broth, 8 mL, 246003, Becton Dickinson, Franklin Lakes, NJ, USA) was used when testing the peptides’ activity. […] Three biological and technical replicates were performed per strain.

[2] = system: P. aeruginosa Strain ATCC 121110
Experimental: as §1, §2

[3] = system: P. aeruginosa strain panel
Experimental: as §1, §2

[4] = Strain 121007, value in brackets
[5] = Strain ATCC 121110, value in brackets
[6] = panel of 15 P. aeruginosa strains
[7] = panel of 15 P. aeruginosa strains, value in brackets

Row | Compound | MIC ([1]; Strain 121007) | MIC [1, 4] | MIC ([2]; Strain ATCC 121110) | MIC [2, 5] | MIC50 [3, 6] | MIC90 [3, 6] | MIC50 [3, 7] | MIC90 [3, 7] | MIC90 ([3]; strain panel) | MIC50 ([3]; strain panel)
1 | CC[C@@H](C)[C@@H](NC(=O)[C@@H](CCCCN)NC(=O)[C@@H](CCCCN)NC(=O)[C@@H](CC(C)C)NC(=O)[C@@H](CCCCN)NC(=O)[C@@H](CCC(=O)O)NC(=O)[C@@H](CCCCN)NC(=O)[C@H](NC(=O)[C@@H](CCCCN)NC(=O)[C@@H](CC(N)=O)NC(=O)[C@@H](CCCNC(=N)N)NC(=O)[C@@H](Cc1ccccc1)NC(=O)[C@@H](CCCCN)NC(=O)[C@@H](CCCNC(=N)N)NC(=O)[C@@H](CC(C)C)NC(=O)[C@@H](CCCNC(=N)N)NC(=O)[C@@H](CCCCN)NC(=O)[C@@H](CCCNC(=N)N)NC(=O)[C@@H](CC(C)C)NC(=O)CN)[C@H](C)CC)C(=O)NCC(=O)N[C@H](CCC(N)=O)C(=O)N[C@H](CCCCN)C(=O)N[C@@H](C(=O)N[C@H](CCC(N)=O)C(=O)NCC(=O)N[C@H](CC(C)C)C(=O)N[C@H](CC(C)C)C(=O)N1CCC[C@@H]1C(=O)N[C@H](CCCCN)C(=O)N[C@H](CC(C)C)C(=O)O)[C@H](C)CC [D-CAP-18_31, Glrkrlrkfrnkikeklkkigqkiqgllpkl] (H-G[dL][dR][dK][dR][dL][dR][dK][dF][dR][dN][dK][dI][dK][dE][dK][dL][dK][dK][dI]G[dQ][dK][dI][dQ]G[dL][dL][dP][dK][dL]-OH) | 2 µg/mL | 0.5 µM | 0.25 µg/mL | 0.07 µM | 4 µg/mL | 16 µg/mL | 1.1 µM | 4.3 µM | 16 µg/mL | 
2 | H-GLRKRLRKFRNKIKEKLKKIGQKIQGLLPKL-OH [CAP-18_31] | 8 µg/mL | 2.1 µM | 0.5 µg/mL | 0.1 µM | 2 µg/mL | 16 µg/mL | 0.5 µM | 4.3 µM |  | 2 µg/mL
